In brackets after ≈: the same amount, converted by molar mass.

Test system in the first data set: not listed separately
In words: Metabolic stability of the compound in human liver microsomes incubated for 60 mins in presence of NADPH by UPLC/MS/MS analysis. The class given is ADME, Microsome. The note with it: read-out: Stability. Background: Liver microsomes are vesicles of endoplasmic reticulum, rich in cytochrome P450 enzymes.
Regarding `Cn1cccc1C(=O)N1CCN(C(=O)Nc2ccc(N3CCC(C(=O)N4CCN(c5cccc6c5C(=O)N(C5CCC(=O)NC5=O)C6=O)CC4)CC3)cc2)CC1` (stereo not drawn), the remaining at 1 h amounted to 79%.
Regarding `Cn1cccc1C(=O)N1CCN(C(=O)Nc2ccc(N3CCC(C(=O)N4CCN(c5ccc6c(c5)C(=O)N(C5CCC(=O)NC5=O)C6=O)CC4)CC3)cc2)CC1` (stereo not drawn), the remaining at 1 h is 72%.
As for `O=C1CCC(N2C(=O)c3cc(F)c(N4CCN(C(=O)C5CCN(c6ccc(NC(=O)c7cnc(Oc8ccccc8)nc7)cc6)CC5)CC4)cc3C2=O)C(=O)N1` (stereo not drawn), the remaining at 1 h worked out at 69%.
As to `O=C1CCC(N2C(=O)c3cccc(N4CCN(C(=O)C5CCN(c6ccc(NC(=O)c7cnc(Oc8ccccc8)nc7)cc6)CC5)CC4)c3C2=O)C(=O)N1` (stereo not drawn), the remaining at 1 h turned out to be 75%.
With `O=C(Nc1ccc(N2CCC(C(=O)N3CCOCC3)CC2)cc1)c1cnc(Oc2ccccc2)nc1`, the remaining at 1 h came out at 80%.
In the case of `Cn1cccc1C(=O)N1CCN(C(=O)Nc2ccc(N3CCC(C(=O)N4CCOCC4)CC3)cc2)CC1`, the remaining at 1 h came to 83%.
As for `O=C1CCC(N2C(=O)c3ccc(N4CCN(C(=O)C5CCN(c6ccc(NC(=O)c7cnc(Oc8ccccc8)nc7)cc6)CC5)CC4)cc3C2=O)C(=O)N1` (stereo not drawn), the remaining at 1 h amounted to 80%.
Regarding `O=C1CCC(c2ccc(NCC(=O)N3CCN(C(=O)C4CCN(c5ccc(NC(=O)c6cnc(Oc7ccccc7)nc6)cc5)CC4)CC3)cc2)C(=O)N1` (stereo not drawn), the remaining at 1 h came to 78%.

Test system in a further data set: not listed separately
Briefly: Lipophilicity, logD of the compound by UPLC analysis. The class given is physicochemical. As to conditions: octanol/water.
On to `Cn1cccc1C(=O)N1CCN(C(=O)Nc2ccc(N3CCC(C(=O)N4CCN(c5cccc6c5C(=O)N(C5CCC(=O)NC5=O)C6=O)CC4)CC3)cc2)CC1` (stereo not drawn), for which the logD (in general, lipophilicity at a set pH, counting ionised and neutral species) is 2.79.
Take `Cn1cccc1C(=O)N1CCN(C(=O)Nc2ccc(N3CCC(C(=O)N4CCN(c5ccc6c(c5)C(=O)N(C5CCC(=O)NC5=O)C6=O)CC4)CC3)cc2)CC1` (stereo not drawn): the logD came to 2.65.
`O=C1CCC(N2C(=O)c3cc(F)c(N4CCN(C(=O)C5CCN(c6ccc(NC(=O)c7cnc(Oc8ccccc8)nc7)cc6)CC5)CC4)cc3C2=O)C(=O)N1` (stereo not drawn) came in with a logD of 3.5.
On the same count and under the same terms, the value for `O=C1CCC(N2C(=O)c3cccc(N4CCN(C(=O)C5CCN(c6ccc(NC(=O)c7cnc(Oc8ccccc8)nc7)cc6)CC5)CC4)c3C2=O)C(=O)N1` (stereo not drawn) was 3.39.
For the compound `O=C(Nc1ccc(N2CCC(C(=O)N3CCOCC3)CC2)cc1)c1cnc(Oc2ccccc2)nc1`, the logD was 3.06.
`Cn1cccc1C(=O)N1CCN(C(=O)Nc2ccc(N3CCC(C(=O)N4CCOCC4)CC3)cc2)CC1` showed a pH-dependent lipophilicity (logD) of 2.25.
`O=C1CCC(N2C(=O)c3ccc(N4CCN(C(=O)C5CCN(c6ccc(NC(=O)c7cnc(Oc8ccccc8)nc7)cc6)CC5)CC4)cc3C2=O)C(=O)N1` (stereo not drawn) registered a pH-dependent lipophilicity (logD) of 3.33.
As to `O=C1CCC(c2ccc(NCC(=O)N3CCN(C(=O)C4CCN(c5ccc(NC(=O)c6cnc(Oc7ccccc7)nc6)cc5)CC4)CC3)cc2)C(=O)N1` (stereo not drawn), the logD is 3.

The target in a further data set is Protein cereblon/Hematopoietic prostaglandin D synthase (Homo sapiens, UniProt O60760+Q96SW2). Briefly: PROTAC activity at CRBN/H-PGDS in human KU812 cells assessed as induction of H-PGDS degradation by measuring decrease in H-PGDS protein expression incubated for 24 hrs by western blot analysis. As to conditions: KU812 cell line. The class given is cell-based. (Immunoblotting shows a protein as a band on a membrane.)
For `O=C1CCC(N2C(=O)c3cc(F)c(N4CCN(C(=O)C5CCN(c6ccc(NC(=O)c7cnc(Oc8ccccc8)nc7)cc6)CC5)CC4)cc3C2=O)C(=O)N1` (stereo not drawn), the Activity result was “Dose-Dependent Effect”.
On the same count and under the same terms, the entry for `O=C1CCC(c2ccc(NCC(=O)N3CCN(C(=O)C4CCN(c5ccc(NC(=O)c6cnc(Oc7ccccc7)nc6)cc5)CC4)CC3)cc2)C(=O)N1` (stereo not drawn) is “Dose-Dependent Effect”.

Staying with this data set, now noted: ku812 cell line.
As to `Cn1cccc1C(=O)N1CCN(C(=O)Nc2ccc(N3CCC(C(=O)N4CCN(c5cccc6c5C(=O)N(C5CCC(=O)NC5=O)C6=O)CC4)CC3)cc2)CC1` (stereo not drawn), the DC50 – broadly, the concentration at which degradation of the target reaches its halfway point – amounted to 0.02 nM.
The same measure, in the same setting: the figure for `Cn1cccc1C(=O)N1CCN(C(=O)Nc2ccc(N3CCC(C(=O)N4CCN(c5ccc6c(c5)C(=O)N(C5CCC(=O)NC5=O)C6=O)CC4)CC3)cc2)CC1` (stereo not drawn) is 0.02 nM; for `O=C1CCC(N2C(=O)c3cc(F)c(N4CCN(C(=O)C5CCN(c6ccc(NC(=O)c7cnc(Oc8ccccc8)nc7)cc6)CC5)CC4)cc3C2=O)C(=O)N1` (stereo not drawn) it is 0.147 nM; for `O=C1CCC(N2C(=O)c3cccc(N4CCN(C(=O)C5CCN(c6ccc(NC(=O)c7cnc(Oc8ccccc8)nc7)cc6)CC5)CC4)c3C2=O)C(=O)N1` (stereo not drawn) it is 0.036 nM.
As to `O=C1CCC(N2C(=O)c3ccc(N4CCN(C(=O)C5CCN(c6ccc(NC(=O)c7cnc(Oc8ccccc8)nc7)cc6)CC5)CC4)cc3C2=O)C(=O)N1` (stereo not drawn), the DC50 stood at 0.175 nM.
Consider `O=C1CCC(c2ccc(NCC(=O)N3CCN(C(=O)C4CCN(c5ccc(NC(=O)c6cnc(Oc7ccccc7)nc6)cc5)CC4)CC3)cc2)C(=O)N1` (stereo not drawn), for which the DC50 turned out to be 0.104 nM.

Test system in another data set: not listed separately
In words: Apparent permeability coefficient, Papp of the compound at pH 7.4 incubated for 4 hrs by UPLC/MS/MS analysis. The class given is ADME. The note with it: not told, pH 7.4.
In the case of `Cn1cccc1C(=O)N1CCN(C(=O)Nc2ccc(N3CCC(C(=O)N4CCN(c5ccc6c(c5)C(=O)N(C5CCC(=O)NC5=O)C6=O)CC4)CC3)cc2)CC1` (stereo not drawn), the Papp (as a rule, a coefficient for how fast a substance crosses the barrier) at 4 h is 0.009 ×10⁻⁶ cm/s.
For the compound `O=C1CCC(N2C(=O)c3cc(F)c(N4CCN(C(=O)C5CCN(c6ccc(NC(=O)c7cnc(Oc8ccccc8)nc7)cc6)CC5)CC4)cc3C2=O)C(=O)N1` (stereo not drawn), the Papp at 4 h amounted to 0.007 ×10⁻⁶ cm/s.
As to `O=C1CCC(N2C(=O)c3cccc(N4CCN(C(=O)C5CCN(c6ccc(NC(=O)c7cnc(Oc8ccccc8)nc7)cc6)CC5)CC4)c3C2=O)C(=O)N1` (stereo not drawn), the Papp at 4 h came to 0.07 ×10⁻⁶ cm/s.
Take `O=C(Nc1ccc(N2CCC(C(=O)N3CCOCC3)CC2)cc1)c1cnc(Oc2ccccc2)nc1`: the Papp at 4 h is 3.01 ×10⁻⁶ cm/s.
Same read-out and setting: the value for `Cn1cccc1C(=O)N1CCN(C(=O)Nc2ccc(N3CCC(C(=O)N4CCOCC4)CC3)cc2)CC1` was 0.21 ×10⁻⁶ cm/s; that for `O=C1CCC(N2C(=O)c3ccc(N4CCN(C(=O)C5CCN(c6ccc(NC(=O)c7cnc(Oc8ccccc8)nc7)cc6)CC5)CC4)cc3C2=O)C(=O)N1` (stereo not drawn) was 0.049 ×10⁻⁶ cm/s.
`O=C1CCC(c2ccc(NCC(=O)N3CCN(C(=O)C4CCN(c5ccc(NC(=O)c6cnc(Oc7ccccc7)nc6)cc5)CC4)CC3)cc2)C(=O)N1` (stereo not drawn): the Papp at 4 h was determined as 0.2 ×10⁻⁶ cm/s.

The data set is the same for the next values; noted with them: pH 7.4, 4 h.
Take `Cn1cccc1C(=O)N1CCN(C(=O)Nc2ccc(N3CCC(C(=O)N4CCN(c5cccc6c5C(=O)N(C5CCC(=O)NC5=O)C6=O)CC4)CC3)cc2)CC1` (stereo not drawn): the Papp stood at 0.0007 ×10⁻⁶ cm/s.

Test system in a further data set: not listed separately
In words: Metabolic stability of the compound in human liver microsomes incubated for 10 mins in presence of NADPH by UPLC/MS/MS analysis. Format: ADME, Microsome. The note with it: read-out: Stability.
Take `Cn1cccc1C(=O)N1CCN(C(=O)Nc2ccc(N3CCC(C(=O)N4CCN(c5cccc6c5C(=O)N(C5CCC(=O)NC5=O)C6=O)CC4)CC3)cc2)CC1` (stereo not drawn): the remaining at 10 min is 93%.
In the case of `Cn1cccc1C(=O)N1CCN(C(=O)Nc2ccc(N3CCC(C(=O)N4CCN(c5ccc6c(c5)C(=O)N(C5CCC(=O)NC5=O)C6=O)CC4)CC3)cc2)CC1` (stereo not drawn), the remaining at 10 min is 90%.
Same read-out and setting: the figure for `O=C1CCC(N2C(=O)c3cc(F)c(N4CCN(C(=O)C5CCN(c6ccc(NC(=O)c7cnc(Oc8ccccc8)nc7)cc6)CC5)CC4)cc3C2=O)C(=O)N1` (stereo not drawn) is 93%.
Consider `O=C1CCC(N2C(=O)c3cccc(N4CCN(C(=O)C5CCN(c6ccc(NC(=O)c7cnc(Oc8ccccc8)nc7)cc6)CC5)CC4)c3C2=O)C(=O)N1` (stereo not drawn), for which the remaining at 10 min is 89%.
Regarding `O=C(Nc1ccc(N2CCC(C(=O)N3CCOCC3)CC2)cc1)c1cnc(Oc2ccccc2)nc1`, the remaining at 10 min was determined as 96%.
`Cn1cccc1C(=O)N1CCN(C(=O)Nc2ccc(N3CCC(C(=O)N4CCOCC4)CC3)cc2)CC1`: the remaining at 10 min was 92%.
With `O=C1CCC(N2C(=O)c3ccc(N4CCN(C(=O)C5CCN(c6ccc(NC(=O)c7cnc(Oc8ccccc8)nc7)cc6)CC5)CC4)cc3C2=O)C(=O)N1` (stereo not drawn), the remaining at 10 min was determined as 93%.
On to `O=C1CCC(c2ccc(NCC(=O)N3CCN(C(=O)C4CCN(c5ccc(NC(=O)c6cnc(Oc7ccccc7)nc6)cc5)CC4)CC3)cc2)C(=O)N1` (stereo not drawn), for which the remaining at 10 min was 89%.

Test system in a further data set: not listed separately
Briefly: Solubility of the compound in PBS buffer at 100 uM at pH 7.4 by UPLC/MS/MS analysis. Format: physicochemical.
Conditions: not given
With `Cn1cccc1C(=O)N1CCN(C(=O)Nc2ccc(N3CCC(C(=O)N4CCN(c5cccc6c5C(=O)N(C5CCC(=O)NC5=O)C6=O)CC4)CC3)cc2)CC1` (stereo not drawn), the solubility (usually the dissolved amount per volume that the medium holds) at 100 µM came to 37.4 µM (≈ 28.6 µg/mL).
`Cn1cccc1C(=O)N1CCN(C(=O)Nc2ccc(N3CCC(C(=O)N4CCN(c5ccc6c(c5)C(=O)N(C5CCC(=O)NC5=O)C6=O)CC4)CC3)cc2)CC1` (stereo not drawn) registered a solubility at 100 µM of 2.91 µM (≈ 2.22 µg/mL).
As to `O=C1CCC(N2C(=O)c3cc(F)c(N4CCN(C(=O)C5CCN(c6ccc(NC(=O)c7cnc(Oc8ccccc8)nc7)cc6)CC5)CC4)cc3C2=O)C(=O)N1` (stereo not drawn), the solubility at 100 µM was less than 0.5 µM.
The compound `O=C1CCC(N2C(=O)c3cccc(N4CCN(C(=O)C5CCN(c6ccc(NC(=O)c7cnc(Oc8ccccc8)nc7)cc6)CC5)CC4)c3C2=O)C(=O)N1` (stereo not drawn) gave a solubility at 100 µM of 1.12 µM (≈ 0.832 µg/mL).
Compound `O=C(Nc1ccc(N2CCC(C(=O)N3CCOCC3)CC2)cc1)c1cnc(Oc2ccccc2)nc1` yielded a solubility at 100 µM of 3.17 µM (≈ 1.55 µg/mL).
Compound `Cn1cccc1C(=O)N1CCN(C(=O)Nc2ccc(N3CCC(C(=O)N4CCOCC4)CC3)cc2)CC1` displayed a solubility at 100 µM not below 95 µM.
Compound `O=C1CCC(N2C(=O)c3ccc(N4CCN(C(=O)C5CCN(c6ccc(NC(=O)c7cnc(Oc8ccccc8)nc7)cc6)CC5)CC4)cc3C2=O)C(=O)N1` (stereo not drawn) registered a solubility at 100 µM of less than 0.5 µM.
On the same count and under the same terms, the figure for `O=C1CCC(c2ccc(NCC(=O)N3CCN(C(=O)C4CCN(c5ccc(NC(=O)c6cnc(Oc7ccccc7)nc6)cc5)CC4)CC3)cc2)C(=O)N1` (stereo not drawn) is 7 µM (≈ 5.12 µg/mL).

The record behind these values is ChEMBL document CHEMBL5252649, “CRBN ligand expansion for hematopoietic prostaglandin D2 synthase (H-PGDS) targeting PROTAC design and their in vitro ADME profiles” (Bioorg Med Chem, 2023).
